The source of these data is patent publication US5298652A, “N-substituted glycines, inhibitors of phospholipase A2” (Hoffmann-La Roche Inc., priority 1992, dated 1994).

Read-outs that look alike come from different tables or passages of the source.

Assay [1] deals with acetic acid-induced colitis (colonic mucosa myeloperoxidase). The experiment in a line: Acetic acid-induced colitis in rats. The class given is in vivo, male rats (Sprague-Dawley). To be noted: 10 mg/kg po. From the text:
Acetic Acid-Induced Colitis in Rats
The rat acetic acid-induced colitis bioassay has been described by J. E. Krawisz, et al. in Amer. J. Proc. Gastro. Col. Rec. Surg. 31, 11-18 (1980), and by P. Sharon and W. F. Stenson in Gastroenterology 88, 55-63 (1985) and 86, 453-460 (1984). Acetic acid-induced colitis is characterized by the movement of inflammatory cells into the colon, with the number of such cells in the mucosa being measured by the activity of myeloperoxidase, a marker enzyme for these cells. Positive desirable activity is indicated by a reduction in the high levels of myeloperoxidase caused by acetic acid. Male rats (Sprague-Dawley), weighing 150 to 300 g, were pretreated twice daily for two days with either the vehicle (water or dimethylsulfoxide) or the test inhibitor compound suspended in water or dissolved in dimethylsulfoxide and orally administered. […] The colonic mucosa was surgically removed and homogenized in an aqueous buffer at pH 6 with a Tissumizer or similar device and myeloperoxidase was measured in the homogenate using o-phenyl enediamine as a chromagen, as described by A. Voller, D. E. Bidwell and A. Bartlett in "The Enzyme Linked Immunosorbent Assay (ELISA)", Zoological Soc., London, 1979, pages 29-30. […]

For assay [2], the system named is croton oil-induced mouse ear edema. Briefly: Croton oil mouse ear edema test. The following applies: 1 mg topical, coapplied with croton oil; ear punch weight at 6 hours. It counts as in vivo, male CD-1 mice. How it is done: Croton Oil Mouse Ear Edema Test
The croton oil-induced mouse ear edema test, a model of irritant-induced contact dermatitis, has been used for evaluation of the PLA2 inhibitors by the topical route of administration. This test was carried out as described in the following references: […]
Twenty five μl of a 1% croton oil solution [dissolved in a mixture of pyridine/water/diethyl ether at a ratio of 5/20/75 (croton oil vehicle)] are applied to the outer side of the right ear of 3-4 week old male CD-1 mice (8 animals per group). The test compounds are dissolved directly in the 1% croton oil solution at various concentrations and coapplied. Control animals receive 25 μl of croton oil vehicle on the right ear. Biopsy punches are removed at 6 hours from the right ear of the animals using a 6 mm skin trephine (Roboz, Washington, D.C.) and the wet weight of the ear punches is determined. The weight of the biopsy punches is a measure of ear inflammation, primarily edema. The data are expressed as percent inhibition relative to control groups.
Statistical analysis of the mean edema values of the control versus the treated groups is performed using Student's t-test. The significance of changes from mean value for vehicle-treated animals is as follows (*p<0.05, **p<0.01, ***p<0.005, ns/not significant).

Assay [3] has as its target T1, HSF-PLA2 (extracellular PLA2 obtained from human synovial fluid) (Homo sapiens, UniProt P14555).
T1 construct: extracellular enzyme obtained from human synovial fluid; from tissue; host or cells: human synovial fluid (pooled)
T1 sequence (P14555 21-144): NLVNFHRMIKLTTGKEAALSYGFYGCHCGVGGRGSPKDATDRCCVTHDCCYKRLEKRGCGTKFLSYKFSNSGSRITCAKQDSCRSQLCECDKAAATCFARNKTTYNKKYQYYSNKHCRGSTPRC
Briefly: Assay for inhibition of HSF-PLA2 in vitro. It counts as biochemical. The following applies: read-out: % Inhib of HSF-PLA2; for inhibition at 5.8 µM: 5.8 μM test compound. How it is done:
Assay for Inhibition of HSF-PLA2 In Vitro
The PLA2 used in this test is the extracellular enzyme obtained from human synovial fluid (HSF-PLA2).
The assay for HSF-PLA2 activity was a modification of the described method [Franson R., Dobrow R., Weiss, J., Elsbach P., and Weglick W. B., J. Lipid Res., 19, 18-23 (1978)] which was conducted using [1-^14 C]-oleate-labelled E. coli substrate in excess at a final concentration of 20,000 dpm/ml. This was equivalent to 18.2 mM of cell membrane phospholipid phosphorus and 2×10^9 autoclaved E. coli/ml. The optimal conditions which were developed for the assay of HSF-PLA2 inhibitors are summarized as follows. A total volume of 0.5 ml of reaction mixture typically had the following final composition: substrate (20,000 dpm/ml); enzyme (0.1% HSF, v/v); 2 mM CaCl2; 150 mM Na^+; 50 mM sodium HEPES buffer, pH 7.3; and 1% dimethyl sulfoxide (DMSO, used to solubilize test inhibitors) in the presence or absence of inhibitor. The reaction was initiated by the addition of HSF-PLA2 and duplicate samples of the mixture were incubated in 13×100 mm glass tubes with shaking for 30 minutes at 37° C. The reaction was terminated by the addition of 2.5 ml of chloroform-methanol (1 to 1.5, v/v). The extraction of lipids from the stopped reaction mixture was conducted by the further additions of 0.5 ml of chloroform and 1 ml of water with mixing. After centrifuging, the lower chloroform phase was transferred to smaller glass tubes and the solvent was evaporated to dryness with a nitrogen stream. The extracted lipid residue was redissolved in […] of a solution containing carrier oleic acid (0.2 mg/ml) in chloroform-methanol [9 to 1, v/v]). The whole lipid extract was applied to a preactivated (30 minutes at 110° C.) silica gel-impregnated glass fiber thin layer chromatography sheet (ITLC type SG sheet from Gelman Sciences Inc., Ann Arbor, Mich.) using hexane-acetic acid (100 to 1, v/v) as the developing solvent. This TLC system rapidly (6 minutes) resolved the enzymatically released product, ^14 C-oleic acid, from the unreacted ^14 C-phospholipid substrate. The unsaturated lipids were located on the chromatogram by a brief exposure to iodine vapor. The oleic acid zone (Rf value 0.95) and phospholipid zone (origin) were cut out, chopped into small pieces, shaken with 2 ml of ethanol-water (80 to 20, v/v) and 15 ml of Aquasol and counted for radio-activity. A control incubation of substrate in the absence of HSF-PLA2 was performed in each experiment. The PLA2 activity of the human synovial fluid was corrected for this small control value. […] The specific activity of PLA2 in the pooled human synovial fluid under the optimal assay conditions was 49.2 nmoles [1-^14 C]-oleic aid released hour^-1 mg^-1. The IC50 (μM concentration of test compound that produces 50% inhibition of PLA2 activity) was determined for each test compound.

Assay [4] deals with adjuvant arthritis induced by Freunds complete adjuvant.
Method: Representative compounds of the invention were tested in the standard adjuvant arthritis model in rats, induced by Freunds complete adjuvant, as described by C.
The subject of assay [5] is carrageenan-induced paw edema. The experiment in a line: Rat carrageenan paw edema. It counts as in vivo, Lewis rats. The following applies: 30 mg/kg ip, 1 hr prior to carrageenan. How it is done:
Rat Carrageenan Paw Edema
Representative compounds of the invention were tested in rat carrageenan-induced paw edema to determine their ability to inhibit this acute inflammatory response. Test compounds were administered intraperitoneally or orally to groups of seven Lewis rats (~200 gm) 1 hr prior to carrageenan administration. The test compounds were dissolved in dimethyl sulfoxide for intraperitoneal administration and dissolved or suspended in Labrafil […] for oral administration. At 0 hour, 0.1 mL of 1% carrageenan dissolved in pyrogen free […] was injected subplanetary into the right hind paw to elicit the inflammatory response. The volume (in mL) of the right hind paw was measured by immersion of the paw to the level of the lateral malleolus in an aqueous plethysmometer immediately prior to the injection of carrageenan and then at 1, 2 and 4 hr after carrageenan injection. The paw edema was calculated by subtracting the zero time reading from the readings taken after injection. The percent change of the edema volume from the vehicle treated control was calculated to determine the activity of the test compound. Statistical analysis of the mean paw edema values of the control versus the treated groups was performed using Student's t-test.
(Carrageenan injected into the paw causes an acute inflammation.)

Regarding `CCCCCCCCCCCCCCCCCCOc1cccc(C(=O)N(CC(=O)O)CC(=O)O)c1` [Example 4, N-(Carboxymethyl)-N-[3-(octadecyloxy)benzoyl]glycine], the “% Inhib of Myeloperoxidase Accumulation” value in assay [1] came to 112 ± 53%. The “% Inhib of Croton Oil Mouse Ear Edema (1 mg)” value (“% Inhib … (1 mg)” for short) in assay [2] is given as 17%. In assay [3], the inhibition at 5.8 µM worked out at 50%. Besides, the “Change in Paw Volume in ml, Treated” value in assay [4] (dose 10 mg/kp ip) is -0.14 ± 0.06 mL. Further, the “% Inhib of Carrageenan Paw Edema 2 hr 30 mg/kg ip” value in assay [5] worked out at 50%.
As to `CCCCCCCCCCCCCCCCCCOc1ccc(C(=O)C(=O)N(CC(=O)O)CC(=O)O)cc1` [Example 65, N-(Carboxymethyl)-N-[2-[4-(octadecyloxy)phenyl]-1,2-dioxoethyl]glycine], the “% Inhib … (1 mg)” value in assay [2] was 44%. Further, the inhibition at 1 µM in assay [3] (1 μM test compound) is 74%. For the same molecule, the “Change in Paw Volume in ml, Treated” value in assay [4] (dose 10 mg/kp ip) was -0.07 ± 0.08 mL. Further, in assay [5], the “% Inhib of Carrageenan Paw Edema 2 hr 30 mg/kg ip” value worked out at 71%.
In the case of `CCCCCCCCCCCCCCCCCCOc1ccc(O)c(C(=O)N(CC(=O)O)CC(=O)O)c1` [Example 62, N-(carboxymethyl)-N-[2-hydroxy-5-(octadecyloxy)benzoyl]glycine], the “% Inhib … (1 mg)” value in assay [2] is 65%. Further, the inhibition at 5.8 µM in assay [3] stood at 50%. The “Change in Paw Volume in ml, Treated” value in assay [4] (dose 30 mg/kp ip) was -0.11 ± 0.06 mL. The “% Inhib of Carrageenan Paw Edema 2 hr 30 mg/kg ip” value in assay [5] was found to be 57%.
